In PubChem BioAssay (NCI):
“And” between values parts separate entries of the source, which are not always exact repeats. Identical values can stand only once.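 Five compound concentrations were applied to cells in 96-well plates for 48 hours; endpoints were derived by simple linear interpolation of the resulting dose-response curve. GI50 = concentration required for 50% inhibition of growth. TGI denotes the concentration required for complete inhibition of growth.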

Key:
Assay in all cases: NCI tumour cell line growth inhibition, 48 h
BT-549 breast = system: BT-549 breast
CAKI-1 renal = system: CAKI-1 renal
EKVX NSCLC = system: EKVX NSCLC
HOP-92 NSCLC = system: HOP-92 NSCLC
K-562 leukemia = system: K-562 leukemia
PC-3 prostate = system: PC-3 prostate
RXF 393 renal = system: RXF 393 renal
SK-OV-3 ovarian = system: SK-OV-3 ovarian
SNB-75 CNS = system: SNB-75 CNS
HCT-116 colon = system: HCT-116 colon

Row | SMILES | GI50 (BT-549 breast) [µM] | TGI (BT-549 breast) | GI50 (CAKI-1 renal) [µM] | TGI (CAKI-1 renal) | GI50 (EKVX NSCLC) [µM] | TGI (EKVX NSCLC) | GI50 (HOP-92 NSCLC) [µM] | TGI (HOP-92 NSCLC) | GI50 (K-562 leukemia) [nM] | TGI (K-562 leukemia) [µM] | GI50 (PC-3 prostate) [µM] | TGI (PC-3 prostate) | GI50 (RXF 393 renal) [nM] | TGI (RXF 393 renal) [µM] | GI50 (SK-OV-3 ovarian) | TGI (SK-OV-3 ovarian) | GI50 (SNB-75 CNS) | TGI (SNB-75 CNS) | GI50 (HCT-116 colon) [nM] | TGI (HCT-116 colon)
1 | C[C@@]12CC=C3c4nc(Nc5cccc(O)c5)sc4CC[C@]3(C)[C@H]1CC[C@]1(C)C(=O)CC[C@@H]21 | 1.61 | 6.47 µM | 1.7 | 3.28 µM | 5.93 | 83.3 µM | 1.93 | 5.32 µM | 2530 | > 100 | 1.41 | 7.02 µM | 666 | 2.35 | 4.81 µM | 28 µM | 3.19 µM | > 100 µM |  | 
2 | c1cc(CNC23CC4CC(CC(C4)C2)C3)cc(C[N+](Cc2cccc(CNC34CC5CC(CC(C5)C3)C4)c2)(Cc2cccc(CNC34CC5CC(CC(C5)C3)C4)c2)Cc2cccc(CNC34CC5CC(CC(C5)C3)C4)c2)c1 (stereo not given) | 4.27 | 11.6 µM | 5.36 | 19.6 µM |  |  | 4.74 | 12.8 µM | 6100 | 151 | 5.86 | 21.6 µM | 3390 | 6.54 | 21.4 µM | 47.7 µM | 9.78 µM | 40.7 µM | 3040 | 8.42 µM
3 | C=C1C(=O)O[C@H]2[C@H]1CC/C(COC(=O)C(=O)c1cn(Cc3ccccc3)c3ccccc13)=C\CC[C@@]1(C)O[C@@H]21 | 1.8 | 4.1 µM | 2.96 | 34.5 µM | 2.06 | 5.96 µM | 1.88 | 4.38 µM | 2660 | 10.4 | 2.14 | 4.35 µM | 1890 | 3.43 | 18.9 µM | 56.7 µM | 1.83 µM | 8.4 µM | 1620 | 3.36 µM
4 | Cc1cn(C2CC(N(O)Cc3ccccc3)C(CO[Si](C)(C)C(C)(C)C)O2)c(=O)[nH]c1=O (stereo not given) |  | 34.7 µM and 30 µM |  | 76.1 µM and 31.1 µM |  | > 100 µM and 33.9 µM |  | 36.8 µM and 29.6 µM |  | > 100 |  | 61.7 µM and 28 µM |  | 26.8 | 62 µM and 16.5 µM | > 100 µM and 30.1 µM | 39 µM and 16.2 µM | > 100 µM and 29.8 µM |  | 34.8 µM and 29.7 µM
5 | COc1cc2nc3cc([N+](=O)[O-])ccc3c(NCCCNCCO)c2cc1OC | 0.297 | 0.962 µM | 2.62 | 16.7 µM | 0.353 | 4.63 µM | 0.148 | 0.438 µM |  |  | 0.213 | 0.483 µM | 186 | 0.473 | 0.265 µM | 0.711 µM | 0.128 µM | 0.26 µM | 115 | 0.385 µM
6 | COc1cc2c3c(n(CCCNC(=O)OCC4c5ccccc5-c5ccccc54)c(=O)c2cc1OC)-c1cc2c(cc1/C3=C\CCNC(=O)OCC1c3ccccc3-c3ccccc31)OCO2 | 12.4 | > 50 µM | > 13.8 | > 46.1 µM | > 50 | > 50 µM | > 40.7 | > 50 µM | 9170 | > 35.8 | > 50 | > 50 µM | 5280 | 14.6 | > 25.6 µM | > 50 µM | > 50 µM | > 50 µM |  | > 12.9 µM
7 | C=C1C(=O)O[C@@H]2/C=C(\C)CC/C=C(/COC(C)=O)C[C@@H](OC(C)=O)[C@@H]12 |  | 16.7 µM |  | 20.2 µM |  | 25.8 µM |  | 21.1 µM |  | > 33.8 |  | 36.4 µM |  | 24.2 |  | > 100 µM |  | > 100 µM |  | 14.6 µM
8 | COC(=O)C1=CNC=C(C(=O)OC)C1C1=CC(=O)C(C)=CC1=O | 18.2 | 34.3 µM | 6.71 | 19.4 µM | 16.3 | 30 µM | 4.65 | 15.6 µM | 1360 | 3.84 | 16.3 | 30.5 µM | 31100 | > 54.2 | 17.6 µM | 37.3 µM | 16 µM | 42 µM | 1940 | 3.79 µM
9 | COC1=CC(=O)c2nc(-c3cccc(C)n3)[nH]c2C1=O | 17.8 | 36.5 µM | 22 | 54.9 µM | 34.8 | > 100 µM | 17.4 | 43.7 µM | > 100000 | > 100 | 11.8 | 39.5 µM | > 100000 | > 100 | 19.3 µM | 35.7 µM | 21.2 µM | 43.6 µM | 18000 | 35.7 µM
10 | NS(=O)(=O)c1ccc(N=Nc2c(O)[nH]c3ccc(-c4cnco4)cc23)cc1 | 18 | > 25 µM | > 25 | > 25 µM | > 25 | > 25 µM | > 25 | > 25 µM | > 25000 | > 25 | > 25 | > 25 µM | > 19600 | > 25 | > 25 µM | > 25 µM | 10.1 µM | > 25 µM | 6970 | > 25 µM
11 | Oc1cccnc1CN1CCCCC1 |  | > 100 µM |  | > 100 µM |  | > 100 µM |  | > 100 µM |  | > 100 |  | > 100 µM |  | > 100 |  | > 100 µM |  | > 100 µM |  | > 100 µM
12 | COC(C(O)CO)C(O)C(O)C(=O)NNc1ccccc1 (stereo not given) |  | > 100 µM |  | > 100 µM |  | > 100 µM |  | > 100 µM |  | > 100 |  | > 100 µM |  | > 100 |  | > 100 µM |  | > 100 µM |  | > 100 µM
13 | O=C(O)C1OC(n2cc(F)c(=O)[nH]c2=O)CC1O (stereo not given) |  | > 100 µM |  | > 100 µM |  | > 100 µM |  | > 51.4 µM |  | > 100 |  | > 100 µM |  | > 100 |  | > 100 µM |  | > 100 µM |  | > 100 µM
14 | O=C(NC1=CC(=O)c2ccccc2C1=O)c1ccccc1 | 0.706 | 14.9 µM | 1.74 | 3.54 µM | 0.729 | 7.63 µM | 0.572 | 2.6 µM | 694 | > 100 | 0.421 | 2.44 µM | 1400 | 3.12 | 3.06 µM | 14.3 µM | 0.373 µM | 8.1 µM | 409 | 1.6 µM
